Data set [1] can be described thus: Intestinal permeability of silybin, Ussing chamber. The note with it: male, Wistar, rat, pH 7.4.
Procedure: Male Wistar rats weighing 225–270 g (eight weeks old, n = 28) were purchased from Samtako Co. (Osan, Korea). Rats were housed in a 12-h light/dark cycle, and food and water were supplied ad libitum for one week prior to animal studies. […] Rats were fasted for 16 h, but had free access to water before study commencement. […] A proximal jejunum section (approximately 10 cm) was excised and washed in prewarmed HBSS (pH 7.4). Segments were mounted on a tissue holder of a Navicyte Easy Mount Ussing Chamber (Warner Instruments, Holliston, MA, USA), with a surface area of 0.76 cm², and acclimated in HBSS for 15 min with continuous oxygenation (95% O₂/5% CO₂ gas). […]
To investigate whether efflux transporters were involved in this process, an apical to basal (A to B) and a basal to apical (B to A) transport of 20 μM silybin in the presence of representative inhibitors of P-gp, MRPs, and BCRPs such as 20 μM cyclosporine A (CsA), 100 μM MK-571, and 20 μM fumitremorgin C (FTC), respectively, were measured in a proximal jejunum section from control rats (n = 4) [45, 46]. The effects of TPGS (0.01–1 mg/mL) on silybin permeability were also measured in a proximal jejunum section from control rats (n = 4) using the above method. […]
Data set [2] deals with rat jejunal segments. In words: Lucifer yellow permeability (intestinal integrity), Ussing chamber. In kind it is in vitro ADME. The method, then:
Segments were mounted on a tissue holder of a […] […] Lucifer yellow fluorescence in 200 μL sample aliquots was measured using a fluorescence spectrophotometer (Infinite 200 PRO, Tecan, Switzerland) at an excitation wavelength of 425 nm and emission wavelength of 535 nm.

The nature of data set [3]: Effect of various excipients on silymarin solubility. It counts as physicochemical. The method, then:
The effect of various excipients on the silymarin solubility was measured. […] Mixtures were centrifuged at 16,000× g for 10 min and supernatants filtered through a membrane filter (pore size; 0.22 μm). Filtrates were diluted in 85% acetonitrile and silybin concentrations analyzed using a liquid chromatography-tandem mass spectrometry (LC-MS/MS) system.

Data set [4] is described as follows: Liver distribution of silybin after repeated oral administration in APAP-induced hepatotoxic rats. To be noted: rat, in vivo. As to the method: To investigate the liver distribution of silymarin and silymarin-SD, blood samples were collected from the abdominal artery at 0.5, 1, 2, 4, and 24 h after the repeated oral administration of silymarin (20 mg/kg as silybin, n = 20) or silymarin-SD (20 mg/kg as silybin, n = 20), according to the dosing schedule. Immediately after blood sampling, the liver was excised, rinsed in saline, and homogenized in nine volumes of saline, using a tissue homogenizer. Aliquots (50 μL) of 10% liver homogenate samples were stored at −80 °C for silybin assay.
Silybin concentrations in plasma and 10% liver homogenate samples were analyzed. Samples (100 μL) were added to 300 μL IS (naringenin, 20 ng/mL in acetonitrile) and the mixture was vigorously mixed for 10 min, followed by centrifugation at 16,000× g for 5 min. Supernatant aliquots (5 μL) were directly injected into an LC-MS/MS system.

The conditions of data set [5]: in vivo; cited from earlier work.

For orientation: efflux ratio means the permeability from basolateral to apical divided by that in the opposite direction, in the common usage.

Take `COc1cc(C2Oc3cc([C@H]4Oc5cc(O)cc(O)c5C(=O)[C@@H]4O)ccc3OC2CO)ccc1O` (stereo partly shown) [silybin, Silybin]: the efflux ratio at 2 h, 20 μM in data set [1] amounted to 5.8.

As to Lucifer yellow [reference compound], in data set [2] (intestinal segment of APAP-induced hepatotoxic rats), the “Papp,AB of Lucifer yellow” value is 0.28 ×10⁻⁶ cm/s.

As for Poloxamer 407, the “increase in silymarin solubility in the presence of excipient” value (“increase in silymarin solubility” for short) in data set [3] is listed as 2~3 fold.

As to Silymarin, the “Papp,AB of Lucifer yellow in the presence of silymarin or silymarin-SD” value in data set [2] was “not different”. Further, in data set [4], the “time course of liver silybin concentration” value was “decreased sharply for 4 h”. Also, the bioavailability in data set [5] is 23–47%.

Consider Tween 80, for which the “increase in silymarin solubility” value in data set [3] was 2~3 fold.

hydroxypropyl cellulose [HPC]: the “increase in silymarin solubility” value in data set [3] is given as “less than 1.5 fold”.

In the case of pluronic F127, the “increase in silymarin solubility” value in data set [3] was 2~3 fold.

In the case of polyvinylpyrrolidone [PVP], in data set [3], the “increase in silymarin solubility” value is on record as “highest increase”.

The values above are taken from PMC8146637, “Enhanced Bioavailability and Efficacy of Silymarin Solid Dispersion in Rats with Acetaminophen-Induced Hepatotoxicity” (Pharmaceutics, 2021).
